Consider two molecules from article PMC9908032, “Novel nitroxide-bile acid conjugates inform substrate requirements for human bile acid transporters” (European journal of pharmaceutical sciences : official …, 2022).

Data set [1] has as its target T1, apical sodium dependent bile acid transporter (hASBT) (Homo sapiens, UniProt Q12908).
T1 construct: gene SLC10A2
T1 sequence (Q12908 1-348): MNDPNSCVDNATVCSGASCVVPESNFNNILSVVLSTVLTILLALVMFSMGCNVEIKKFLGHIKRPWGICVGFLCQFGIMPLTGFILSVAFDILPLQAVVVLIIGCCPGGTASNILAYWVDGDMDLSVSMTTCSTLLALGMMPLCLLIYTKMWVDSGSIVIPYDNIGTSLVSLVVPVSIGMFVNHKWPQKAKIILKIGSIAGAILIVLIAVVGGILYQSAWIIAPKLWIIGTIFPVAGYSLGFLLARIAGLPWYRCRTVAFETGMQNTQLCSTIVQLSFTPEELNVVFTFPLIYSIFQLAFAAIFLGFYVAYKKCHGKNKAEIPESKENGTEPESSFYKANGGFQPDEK
In words: inhibition of [3H]-taurocholate uptake in stably transfected hASBT-MDCK cells. It is filed as cell-based.

Data set [2] has as its target T2, Na+/taurocholate cotransporting polypeptide (hNTCP) (Homo sapiens, UniProt Q14973).
T2 construct: gene SLC10A1
T2 sequence (Q14973 1-349): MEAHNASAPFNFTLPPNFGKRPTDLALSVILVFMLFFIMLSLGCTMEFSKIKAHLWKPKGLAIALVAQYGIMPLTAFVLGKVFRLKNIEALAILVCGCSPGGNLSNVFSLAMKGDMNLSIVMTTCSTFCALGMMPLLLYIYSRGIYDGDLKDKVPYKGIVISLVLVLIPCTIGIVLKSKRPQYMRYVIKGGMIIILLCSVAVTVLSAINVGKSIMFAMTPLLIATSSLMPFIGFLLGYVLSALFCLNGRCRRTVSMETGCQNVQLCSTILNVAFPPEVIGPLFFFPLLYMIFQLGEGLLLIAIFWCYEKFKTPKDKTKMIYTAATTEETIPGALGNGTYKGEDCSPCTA
In words: inhibition of [3H]-taurocholate uptake in transiently transfected hNTCP-HEK293T cells. The data set is classed as cell-based.

Substrate in data set [3]: C[C@H](CCC(=O)NCCS(=O)(=O)O)[C@H]1CC[C@H]2[C@@H]3[C@H](O)C[C@@H]4C[C@H](O)CC[C@]4(C)[C@H]3C[C@H](O)[C@]12C
In words: cells, lysate or membranes. The following applies: Na+.

For orientation: Ki means the dissociation constant of the complex between target and ligand, obtained from inhibition or displacement. A higher Ki goes with a looser hold on the target. With `C[C@H](CCC(=O)NCC(=O)O)[C@H]1CC[C@H]2[C@@H]3[C@H](O)C[C@@H]4C[C@H](O)CC[C@]4(C)[C@H]3C[C@H](O)[C@]12C` [GCA, glycocholic acid], the Ki in data set [1] worked out at 8.28 ± 0.57 µM; in data set [2], 2.47 ± 0.43 µM.

B1: Na+/taurocholate cotransporting polypeptide (hNTCP) (Homo sapiens) (protein)
chain: T2 sequence (Q14973 1-349)
By Km is commonly meant the concentration of substrate that gives half-maximal velocity. For the molecule B1, the Km in data set [3] worked out at 2.14 ± 1.55 µM.
